Reference: article PMC2410273, “Pharmacokinetic behaviour of the chemoprotectants BNP7787 and mesna after an i.v. bolus injection in rats” (British Journal of Cancer, 2004)
Where two headings read alike, the source gives them in different places.

Key:
[1] = Pharmacokinetics and tissue distribution of BNP7787 and mesna after i.v. bolus of BNP7787 or mesna in WARD tumour-bearing rats; assay type: in vivo, Fischer rats; conditions: for AUC^5−60 in plasma, fold higher in rats than in nude mice: after equivalent dose of 1000 mg kg^−1 BNP7787, mouse data ref Boven et al, 2002; for AUC, fold lower than the corresponding value in kidney: all other sampled tissue compartments, after either BNP7787 or mesna; for Kp: 1000 mg/kg
From the text: The protocol was approved by the ethics committee for animal experiments of the Vrije Universiteit medical center in Amsterdam, The Netherlands. This committee strictly adheres to the standards required by the UKCCCR for the welfare of animals in neoplasia ([Workman et al, 1998]). Female Fischer rats (144–171 g) were obtained from Harlan (Indianapolis, USA) and were implanted subcutaneously in both flanks with fragments (2–3 mm diameter) of the WARD colorectal tumour ([Cao et al, 1994]). The pharmacokinetic study started at the time the tumours had reached a mean size of approximately 600 mm^3 (range 250–900 mm^3).
Tumour-bearing rats were treated with 1000 mg kg^−1 BNP7787 i.v. or 1000 mg kg^−1 mesna i.v. injected in the tail vein. Approximately 5 min before sample collection, the rats were anaesthetised by i.p. injection with 0.1 ml of a mixture of 75 mg ml^−1 ketamine plus 5 mg ml^−1 xylazine per 100 g weight. Blood was obtained by heart puncture at 0, 5, 15, 30, 45, 60, 90 and 150 min after i.v. administration of BNP7787 or mesna. Thereafter, the kidney, liver and tumour were removed by surgical dissection. In addition, at time points 0 and 30 min, skeletal muscle attached to the thighbone was also collected. At each time point three rats were killed.
Immediately after collection, the blood samples, which were collected in cooled EDTA-containing tubes (potassium-EDTA 1.6 mg EDTA ml^−1 blood; Sarstedt, Germany), were centrifuged at 4°C for 10 min at 4000 g. Plasma was separated and immediately deproteinised by adding one volume of sulphuric acid (0.33 M) and one volume of sodium hexametaphosphate (5 g/100 ml). After vortexing and centrifugation for 2 min at 12 000 g, the supernatant was stored in aliquots at −80°C until analysis. One volume of RBCs was washed with 1 volume of cold phosphate-buffered saline (PBS) of pH 7.4 containing sodium phosphate (10 mM) and NaCl (140 mM; Hospital Pharmacy, VUmc, Amsterdam, The Netherlands). This mixture was centrifuged for 2 min, 12 000 g at 4°C. After removing the PBS, the remaining RBCs were stored in liquid nitrogen until further processing.
The kidney, liver, tumour and skeletal muscle were washed with cold PBS before storage in liquid nitrogen. After collection of all the samples at the different time points, tissue homogenates of kidney, liver, tumour and skeletal muscle were prepared by pulverisation using a Braun Micro-dismembrator (Salm and Kipp; Breukelen, The Netherlands) according to the method described by [Peters et al (1986)]. An appropriate volume of aqueous EDTA (1 g l^−1) was added to the RBC and tissue homogenates to obtain a concentration of 100 mg tissue (wet weight) per ml. After sonification (10 min) and vortexing (10 min), the samples were subsequently deproteinised by adding 1 volume of cold sulphuric acid (0.33 M) and 1 volume of cold sodium hexametaphosphate (5 g/100 ml). After thorough vortexing and centrifugation (2 min at 8500 g at 4°C), the supernatants were stored in aliquots at −80° until analysis.
BNP7787 and mesna concentrations were determined selectively in one run using micro-HPLC with a dual electrochemical detector (dual ECD) ([Verschraagen et al, 2003b]). Briefly, citrate-NaOH buffer (40 μl of a mixture of 1 ml 5.0 M sodium hydroxide and 4 ml 0.5 M tri-sodium citrate buffer, pH 3.0) was added to 200 μl of deproteinised plasma, RBC or tissue sample, and the sample was injected into the micro-HPLC system which consisted of a Phenomenex C18 guard column (10 μm, 4 × 2.0 mm) and a Phenomenex Prodigy C18 ODS-3 column (5 μm, 100 × 1.0 mm; Bester, Amstelveen, The Netherlands).

[2] = design: method as in Hausheer et al, 1998; conditions: dogs, ref Hausheer et al, 1998; cited from earlier work
[3] = design: method as in Hausheer et al, 1998; conditions: rats, ref Hausheer et al, 1998; cited from earlier work
[4] = tested on: cisplatin-induced nephrotoxicity; design: method as in Hausheer et al, 1998; conditions: rats, ref Hausheer et al, 1998, cited from earlier work
[5] = tested on: cisplatin-induced nephrotoxicity; design: method as in Hausheer et al, 1998; conditions: dogs; plasma creatinine, BUN, renal histopathology; ref Hausheer et al, 1998; cited from earlier work
[6] = tested on: antitumour activity of cisplatin; design: method as in Hausheer et al, 1998; conditions: tumour-bearing rats; given preceding cisplatin; ref Hausheer et al, 1998; cited from earlier work
[7] = tested on: antitumour activity of cisplatin; design: method as in Boven et al, 2002; conditions: tumour-bearing nude mice; given preceding cisplatin; ref Boven et al, 2002; cited from earlier work
[8] = design: method as in Verschraagen et al, in press; conditions: cancer patients, ref Verschraagen et al, in press, cited from earlier work
[9] = tested on: cisplatin-induced toxicity; design: method as in Boven et al, 2002; conditions: nude mice; in the presence of 1000 mg kg^−1 BNP7787; ref Boven et al, 2002; cited from earlier work
[10] = tested on: intestinal and renal epithelial cells; design: method as in earlier work; conditions: isolated cells, via facilitated transport, ref Ormstad and Uehara, 1982, Ormstad et al, 1983, Brock et al, 1984, Ormstad and Ohno; cited from earlier work
[11] = design: method as in Ormstad et al, 1983; conditions: in vitro, ref Ormstad et al, 1983, cited from earlier work
[12] = design: method as in Boven et al, 2002; conditions: nude mice; after BNP7787 administration; ref Boven et al, 2002; cited from earlier work
[13] = 30 min after 1000 mg kg^−1 BNP7787 i.v.
[14] = 30 min after 1000 mg kg^−1 mesna i.v.
[15] = RBC, each 1000 mg kg^−1 i.v., P<0.01
[16] = after 1000 mg kg^−1 BNP7787 i.v., RBC
[17] = after 1000 mg kg^−1 BNP7787 i.v., kidney
[18] = after 1000 mg kg^−1 BNP7787 i.v., liver
[19] = after 1000 mg kg^−1 BNP7787 i.v., plasma
[20] = after 1000 mg kg^−1 BNP7787 i.v., tumour
[21] = after 1000 mg kg^−1 mesna i.v., kidney
[22] = after 1000 mg kg^−1 mesna i.v., plasma
[23] = after 1000 mg kg^−1 mesna i.v., tumour
[24] = female, Fischer, rat, all tissue compartments other than kidney / plasma, iv, after 1000 mg kg^−1 mesna i.v., all tissue compartments other than kidney, read-out: tissue–plasma AUC ratio
[25] = female, Fischer, rat, kidney / plasma, iv, after 1000 mg kg^−1 BNP7787 i.v., read-out: kidney–plasma AUC ratio
[26] = female, Fischer, rat, kidney / plasma, iv, after 1000 mg kg^−1 mesna i.v., read-out: kidney–plasma AUC ratio
[27] = female, Fischer, rat, liver / plasma, iv, after 1000 mg kg^−1 BNP7787 i.v., read-out: liver–plasma AUC ratio
[28] = female, Fischer, rat, red blood cells / plasma, iv, after 1000 mg kg^−1 BNP7787 i.v., read-out: RBC–plasma AUC ratio
[29] = female, Fischer, rat, tumour / plasma, iv, after 1000 mg kg^−1 BNP7787 i.v., read-out: tumour–plasma AUC ratio
[30] = plasma, each 1000 mg kg^−1 i.v., P<0.01

For `O=S(=O)([O-])CCSSCCS(=O)(=O)[O-].[Na+].[Na+]` [BNP7787, disodium 2,2′-dithio-bis-ethane sulphonate], the “mean concentration (±s.d.) in skeletal muscle” value (shortened to “mean concentration”) [1, 13] was 36.9 ± 26.0 nmol/g, the “mean concentration” value [1, 14] was 30.3 ± 17.6 nmol/g and the “AUC (printed: concentration) after BNP7787 administration compared with after mesna administration” value [1, 15] was “six-fold lower”. For the same compound, the “AUC of BNP7787, fold lower than AUC of mesna” value [1, 16] was 11.4 fold, the time detectable [1, 16] was 30 min and the “time of highest concentrations / peak levels” value ([1]; after 1000 mg kg^−1 BNP7787 i.v., all compartments) was 5 min. The “AUC of BNP7787, fold lower than AUC of mesna” value [1, 17] was 2.7 fold, the time detectable [1, 17] was 90 min and the “AUC of BNP7787, fold lower than AUC of mesna” value [1, 18] was 39.8 fold. For the same compound, the time detectable [1, 18] was 30 min, the “AUC of BNP7787 relative to AUC of mesna” value [1, 19] was “almost two-fold higher” and the time detectable [1, 19] was 90 min. The “AUC of BNP7787, fold lower than AUC of mesna” value [1, 20] was 5.1 fold, the time detectable [1, 20] was 45 min and the time detectable [1, 21] was “at least 150 min”. The time detectable [1, 22] was “at least 150 min”, the time detectable [1, 23] was “at least 150 min” and the “AUC^5−60 in plasma, fold higher in rats than in nude mice” value [1] was 2.7 fold. The “AUC, fold lower than the corresponding value in kidney” value [1] was “at least 5.5 fold”, the Kp [1, 24] was < 0.3 and the Kp [1, 25] was 0.9. It also gave a Kp [1, 26] of 2.1, a Kp [1, 27] of 0.01 and a Kp [1, 28] of 0.01. The Kp [1, 29] was 0.08, the “AUC after BNP7787 administration compared with after mesna administration” value ([1]; kidney, each 1000 mg kg^−1 i.v.) was “smaller, but not significant difference” and the “AUC after BNP7787 administration compared with after mesna administration” value ([1]; liver, each 1000 mg kg^−1 i.v.) was “not significantly different”. The “AUC after BNP7787 administration compared with after mesna administration” value [1, 30] was “more than three-fold higher”, the “AUC after BNP7787 administration compared with after mesna administration” value ([1]; tumour, each 1000 mg kg^−1 i.v.) was “not significantly different” and the “nontoxic dose after i.v. administration” value [2] was 2000 mg/kg. For the same compound, the “nontoxic dose after i.v. administration” value [3] was 4000 mg/kg, the “cisplatin dose (mg kg^−1) tolerated when preceded by BNP7787” value ([4]; 750 or 1500 mg kg^−1 BNP7787 i.v.) was “could be safely increased from 6 to 9” and the “protection against cisplatin-induced nephrotoxicity” value ([4]; plasma creatinine, BUN, renal histopathology) was “completely protected”. The “protection against cisplatin-induced nephrotoxicity” value [5] was “completely protected”, the “effect on antitumour activity of cisplatin” value (from here on “effect on antitumour activity”) [6] was “did not reduce the antitumour activity of cisplatin” and the “effect on antitumour activity” value [7] was “did not reduce the antitumour activity of cisplatin”. For the same compound, the “pharmacokinetic interaction with intact cisplatin” value ([8]; BNP7787 18.4–41 g m^−2) was “no mutual pharmacokinetic interaction”, the relatively nontoxic dose ([8]; phase I, BNP7787 preceding cisplatin) was ≤ 41 g m^−2 and the “weight loss on cisplatin dose increase from 5 to 8 mg kg^−1” value [9] was “weight loss increased”. For the same compound, the cellular uptake [10] was “preferentially taken up in intestinal and renal epithelial cells”, the “reduction of BNP7787 into mesna” value ([11]; cytosol fraction of the kidney cortex) was “large reduction” and the “reduction of BNP7787 into mesna” value ([11]; plasma) was “very limited”.

With `O=S(=O)(O)CCS` [mesna, sodium 2-mercapto ethane sulphonate] the “mean concentration” value [1, 13] was 355.1 ± 113.0 nmol/g, the “mean concentration” value [1, 14] was 665.1 ± 209.1 nmol/g and the “AUC, fold lower after BNP7787 than after mesna administration” value (from here on “AUC, fold lower after BNP7787 than”) [1, 15] was 6.2 fold. For the same compound, the time detectable [1, 16] was “up to 90 min”, the time detectable [1, 17] was “at least 150 min” and the time detectable [1, 18] was “up to 90 min”. For the same compound, the time detectable [1, 19] was “up to 90 min”, the time detectable [1, 20] was “at least 150 min” and the time detectable ([1]; after 1000 mg kg^−1 mesna i.v., RBC) was “at least 150 min”. For the same compound, the time detectable [1, 21] was “at least 150 min”, the time detectable ([1]; after 1000 mg kg^−1 mesna i.v., liver) was “at least 150 min” and the time detectable [1, 22] was “at least 150 min”. For the same compound, the “AUC of mesna relative to AUC of BNP7787” value ([1]; after 1000 mg kg^−1 mesna i.v., plasma and all tissues sampled) was “at least seven-fold higher”, the time detectable [1, 23] was “at least 150 min” and the “AUC^5−60 in plasma, fold higher in rats than in nude mice” value [1] was “approximately 5.2 fold”. For the same compound, the “AUC of mesna in tumour relative to AUC of mesna in plasma” value ([1]; after mesna administration) was “at least three-fold lower”, the “AUC, fold lower than the corresponding value in kidney” value [1] was “at least 5.5 fold” and the Kp [1, 24] was < 0.3. It also gave a Tmax ([1]; female, Fischer, rat, iv, after 1000 mg kg^−1 BNP7787 i.v., liver, read-out: time of maximal concentration in liver (converted)) of 5 min, a Kp [1, 25] of 4.5 and a Kp [1, 26] of 1.7. It also gave a Kp [1, 27] of 0.5, a Kp [1, 28] of 0.1 and a Kp [1, 29] of 0.7. For the same compound, the “AUC, fold lower after BNP7787 than” value ([1]; kidney, each 1000 mg kg^−1 i.v., P<0.01) was 1.9 fold, the “AUC after BNP7787 administration compared with after mesna administration” value ([1]; liver, each 1000 mg kg^−1 i.v.) was “similar” and the “AUC after BNP7787 administration compared with after mesna administration” value [1, 30] was “five-fold lower”. For the same compound, the “AUC of mesna in plasma as % of the AUC of BNP7787” value ([1]; rats, after BNP7787 administration) was “approximately 50%”, the “AUC, fold lower after BNP7787 than” value ([1]; tumour, each 1000 mg kg^−1 i.v., not statistically significant) was 2.1 fold and the “AUC of mesna in plasma as % of the AUC of BNP7787” value [12] was “approximately 24%”. The “effect on antitumour activity” value [6] was “can reduce the number of complete and partial tumour remissions” and the “effect on antitumour activity” value [7] was “reduce the specific growth delay”.
